Results: patent publication US20240247021A1, “CRYSTAL FORMS OF KUDING SAPONIN A COMPOUND, PHARMACEUTICAL COMPOSITION AND USE THEREOF” (SHANGHAI KE PHARMACEUTICAL CO., LTD, priority 2021, published 2024)

Assay: Conditions under which the crystal forms exist stably
Format: physicochemical

| Structure (SMILES) | conditions under which the crystal form exists stably |
| --- | --- |
| C[C@@H]1O[C@@H](O[C@H]2[C@H](O[C@H]3CC[C@]4(C)[C@H]5C[C@H](O)C6=C7[C@]8(CC[C@](C)(OC8=O)[C@@]7(C)O)CC[C@@]6(C)[C@]5(C)CC[C@H]4C3(C)C)OC[C@H](O)[C@@H]2O[C@@H]2O[C@H](CO)[C@@H](O)[C@H](O)[C@H]2O)[C@H](O)[C@H](O)[C@H]1O [crystal form B, Kudinoside A] | can only exist stably at high temperature |
| C[C@@H]1O[C@@H](O[C@H]2[C@H](O[C@H]3CC[C@]4(C)[C@H]5C[C@H](O)C6=C7[C@]8(CC[C@](C)(OC8=O)[C@@]7(C)O)CC[C@@]6(C)[C@]5(C)CC[C@H]4C3(C)C)OC[C@H](O)[C@@H]2O[C@@H]2O[C@H](CO)[C@@H](O)[C@H](O)[C@H]2O)[C@H](O)[C@H](O)[C@H]1O [crystal form D, Kudinoside A] | can only exist stably when the sample is wet |
| C[C@@H]1O[C@@H](O[C@H]2[C@H](O[C@H]3CC[C@]4(C)[C@H]5C[C@H](O)C6=C7[C@]8(CC[C@](C)(OC8=O)[C@@]7(C)O)CC[C@@]6(C)[C@]5(C)CC[C@H]4C3(C)C)OC[C@H](O)[C@@H]2O[C@@H]2O[C@H](CO)[C@@H](O)[C@H](O)[C@H]2O)[C@H](O)[C@H](O)[C@H]1O [crystal form E, Kudinoside A] | can only exist stably when the sample is wet |
| C[C@@H]1O[C@@H](O[C@H]2[C@H](O[C@H]3CC[C@]4(C)[C@H]5C[C@H](O)C6=C7[C@]8(CC[C@](C)(OC8=O)[C@@]7(C)O)CC[C@@]6(C)[C@]5(C)CC[C@H]4C3(C)C)OC[C@H](O)[C@@H]2O[C@@H]2O[C@H](CO)[C@@H](O)[C@H](O)[C@H]2O)[C@H](O)[C@H](O)[C@H]1O [crystal form G, Kudinoside A] | can only exist stably when the sample is wet |
| C[C@@H]1O[C@@H](O[C@H]2[C@H](O[C@H]3CC[C@]4(C)[C@H]5C[C@H](O)C6=C7[C@]8(CC[C@](C)(OC8=O)[C@@]7(C)O)CC[C@@]6(C)[C@]5(C)CC[C@H]4C3(C)C)OC[C@H](O)[C@@H]2O[C@@H]2O[C@H](CO)[C@@H](O)[C@H](O)[C@H]2O)[C@H](O)[C@H](O)[C@H]1O [crystal form I2, Kudinoside A] | cannot exist stably |
| C[C@@H]1O[C@@H](O[C@H]2[C@H](O[C@H]3CC[C@]4(C)[C@H]5C[C@H](O)C6=C7[C@]8(CC[C@](C)(OC8=O)[C@@]7(C)O)CC[C@@]6(C)[C@]5(C)CC[C@H]4C3(C)C)OC[C@H](O)[C@@H]2O[C@@H]2O[C@H](CO)[C@@H](O)[C@H](O)[C@H]2O)[C@H](O)[C@H](O)[C@H]1O [crystal form L, Kudinoside A] | can only exist stably at high temperature |
